According to PubChem BioAssay (NCI):
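Dose response: 5 concentrations. Exposure: 48 h. Format: 96-well plates. Endpoint: linear interpolation; highest concentration if not reached. Abbreviation: GI50, concentration required for 50% inhibition of growth. TGI marks complete inhibition of growth.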

What was measured:
Test in all cases: NCI-60 cell line screen, 48 h
[1] = test system: HL-60(TB) leukemia
[2] = test system: UACC-62 melanoma
[3] = test system: HT29 colon
[4] = test system: HCT-15 colon
[5] = test system: PC-3 prostate
[6] = test system: EKVX NSCLC
[7] = test system: NCI/ADR-RES ovarian
[8] = test system: NCI-H522 lung
[9] = test system: UO-31 renal
[10] = test system: LOX IMVI melanoma
[11] = test system: UACC-257 melanoma
[12] = test system: OVCAR-4 ovarian
[13] = test system: KM12 colon
[14] = test system: U251 CNS
[15] = test system: NCI-H226 lung
[16] = test system: SF-539 CNS
[17] = test system: HCT-116 colon
[18] = test system: A549 NSCLC
[19] = test system: 786-0 renal
[20] = test system: COLO 205 colon
[21] = test system: M14 melanoma
[22] = test system: OVCAR-3 ovarian
[23] = test system: OVCAR-5 ovarian
[24] = test system: HCC-2998 colon
[25] = test system: SNB-19 CNS
[26] = test system: SK-MEL-2 melanoma
[27] = test system: TK-10 renal
[28] = test system: MCF7 breast
[29] = test system: HOP-92 NSCLC
[30] = test system: ACHN renal
[31] = test system: MDA-MB-435
[32] = test system: SK-OV-3 ovarian
[33] = test system: MALME-3M melanoma
[34] = test system: DU-145 prostate
[35] = test system: K-562 leukemia
[36] = test system: CCRF-CEM leukemia
[37] = test system: RXF 393 renal
[38] = test system: SF-295 CNS
[39] = test system: NCI-H23 lung
[40] = test system: SK-MEL-28 melanoma
[41] = test system: A498 renal
[42] = test system: MDA-MB-231 breast
[43] = test system: SR leukemia
[44] = test system: HOP-62 NSCLC
[45] = test system: OVCAR-8 ovarian
[46] = test system: IGROV1 ovarian
[47] = test system: SNB-75 CNS
[48] = test system: CAKI-1 renal
[49] = test system: SF-268 CNS
[50] = test system: SN12C renal
[51] = test system: NCI-H460 lung
[52] = test system: SW-620 colon
[53] = test system: RPMI-8226 leukemia
[54] = test system: BT-549 breast
[55] = test system: SK-MEL-5 melanoma
[56] = test system: HS 578T breast
[57] = test system: MOLT-4 leukemia

For `N=C1C(c2nc3ccccc3c(=O)[nH]2)=C(O)CN1c1cccc(Cl)c1`, the GI50 [1] was 2.34 µM, the TGI [1] was greater than 100 µM and the GI50 [2] was 3.27 µM. It also gave a TGI [2] greater than 100 µM, a GI50 [3] of 0.845 µM and a TGI [3] greater than 100 µM. It also gave a GI50 [4] of 1.51 µM, a TGI [4] greater than 100 µM and a GI50 [5] of 2.69 µM. It also gave a TGI [5] greater than 29.5 µM, a GI50 [6] of 8.29 µM and a TGI [6] greater than 100 µM. For the same compound, the GI50 [7] was 3.16 µM, the TGI [7] was greater than 100 µM and the GI50 [8] was 4.57 µM. It also gave a TGI [8] greater than 100 µM, a GI50 [9] of 13.3 µM and a TGI [9] greater than 100 µM. It also gave a GI50 [10] of 5.68 µM, a TGI [10] greater than 100 µM and a GI50 [11] greater than 100 µM. The TGI [11] was greater than 100 µM, the GI50 [12] was greater than 23 µM and the TGI [12] was greater than 100 µM. For the same compound, the GI50 [13] was 2.01 µM, the TGI [13] was greater than 100 µM and the GI50 [14] was 2.22 µM. For the same compound, the TGI [14] was greater than 50 µM, the GI50 [15] was greater than 100 µM and the TGI [15] was greater than 100 µM. The GI50 [16] was 3.51 µM, the TGI [16] was 24.8 µM and the GI50 [17] was 2.79 µM. The TGI [17] was greater than 100 µM, the GI50 [18] was 5.36 µM and the TGI [18] was greater than 100 µM. For the same compound, the GI50 [19] was 4.05 µM, the TGI [19] was greater than 100 µM and the GI50 [20] was 5.07 µM. The TGI [20] was greater than 100 µM, the GI50 [21] was 5.26 µM and the TGI [21] was greater than 100 µM. For the same compound, the GI50 [22] was 2.15 µM, the TGI [22] was 5.06 µM and the GI50 [23] was greater than 30.8 µM. For the same compound, the TGI [23] was greater than 100 µM, the GI50 [24] was 34.3 µM and the TGI [24] was greater than 100 µM. For the same compound, the GI50 [25] was 6.74 µM, the TGI [25] was greater than 100 µM and the GI50 [26] was greater than 100 µM. For the same compound, the TGI [26] was greater than 100 µM, the GI50 [27] was 6.68 µM and the TGI [27] was greater than 50.6 µM. The GI50 [28] was 4.19 µM, the TGI [28] was greater than 100 µM and the GI50 [29] was greater than 100 µM. The TGI [29] was greater than 100 µM, the GI50 [30] was 3.4 µM and the TGI [30] was greater than 100 µM. It also gave a GI50 [31] of 0.948 µM, a TGI [31] of 3.8 µM and a GI50 [32] of 5.55 µM. It also gave a TGI [32] greater than 100 µM, a GI50 [33] of 1.03 µM and a TGI [33] of 10.7 µM. It also gave a GI50 [34] of 5.12 µM, a TGI [34] greater than 57.9 µM and a GI50 [35] of 1.39 µM. The TGI [35] was greater than 100 µM, the GI50 [36] was 2.88 µM and the TGI [36] was greater than 100 µM. It also gave a GI50 [37] of 2.6 µM, a TGI [37] greater than 27.3 µM and a GI50 [38] of 3.23 µM. It also gave a TGI [38] of 17.8 µM, a GI50 [39] of 4.67 µM and a TGI [39] greater than 100 µM. The GI50 [40] was greater than 22.3 µM, the TGI [40] was greater than 100 µM and the GI50 [41] was 1.9 µM. It also gave a TGI [41] of 17.1 µM, a GI50 [42] greater than 100 µM and a TGI [42] greater than 100 µM. For the same compound, the GI50 [43] was 0.302 µM, the TGI [43] was 2.68 µM and the GI50 [44] was 4.7 µM. It also gave a TGI [44] greater than 100 µM, a GI50 [45] of 5.35 µM and a TGI [45] greater than 100 µM. For the same compound, the GI50 [46] was 37.6 µM, the TGI [46] was greater than 100 µM and the GI50 [47] was 3.83 µM. For the same compound, the TGI [47] was greater than 100 µM, the GI50 [48] was 3.11 µM and the TGI [48] was greater than 29.3 µM. It also gave a GI50 [49] of 8.78 µM, a TGI [49] greater than 100 µM and a GI50 [50] of 19.2 µM. For the same compound, the TGI [50] was greater than 100 µM, the GI50 [51] was 3.72 µM and the TGI [51] was greater than 85.6 µM. For the same compound, the GI50 [52] was 3.28 µM, the TGI [52] was greater than 100 µM and the GI50 [53] was 2.15 µM. The TGI [53] was 6.37 µM, the GI50 [54] was 13.7 µM and the TGI [54] was greater than 100 µM. For the same compound, the GI50 [55] was 1.26 µM, the TGI [55] was 7.55 µM and the GI50 [56] was 2.79 µM. For the same compound, the TGI [56] was 12.3 µM, the GI50 [57] was 4.51 µM and the TGI [57] was greater than 100 µM.
`CN1CCN(CCCCCOc2cc(O)c3c(=O)cc(-c4ccccc4)oc3c2)CC1` showed a GI50 [1] of 3.04 µM, a TGI [1] of 8.63 µM and a GI50 [2] of 1.86 µM. It also gave a TGI [2] of 3.26 µM, a GI50 [3] of 2.86 µM and a TGI [3] of 8.12 µM. It also gave a GI50 [4] of 1.79 µM, a TGI [4] of 4.02 µM and a GI50 [6] of 10.2 µM. It also gave a TGI [6] greater than 100 µM, a GI50 [7] of 14.9 µM and a TGI [7] of 54.4 µM. It also gave a GI50 [8] of 2.59 µM, a TGI [8] of 6.71 µM and a GI50 [9] of 1.71 µM. For the same compound, the TGI [9] was 3.55 µM, the GI50 [10] was 1.6 µM and the TGI [10] was 2.95 µM. The GI50 [11] was 2.03 µM, the TGI [11] was 3.78 µM and the GI50 [12] was 19.1 µM. It also gave a TGI [12] of 77.7 µM, a GI50 [13] of 2.84 µM and a TGI [13] of 9.66 µM. It also gave a GI50 [14] of 1.98 µM, a TGI [14] of 4.86 µM and a GI50 [15] of 22 µM. The TGI [15] was 46.4 µM, the GI50 [16] was 2.81 µM and the TGI [16] was 7.87 µM. It also gave a GI50 [17] of 1.74 µM, a TGI [17] of 4.08 µM and a GI50 [18] of 8.18 µM. For the same compound, the TGI [18] was 26.3 µM, the GI50 [19] was 12.4 µM and the TGI [19] was 26.6 µM. For the same compound, the GI50 [20] was 1.63 µM, the TGI [20] was 3.06 µM and the GI50 [21] was 1.71 µM. It also gave a TGI [21] of 3.09 µM, a GI50 [22] of 3.45 µM and a TGI [22] of 8.1 µM. The GI50 [23] was 4 µM, the TGI [23] was 22.2 µM and the GI50 [24] was 0.239 µM. It also gave a TGI [24] of 4.9 µM, a GI50 [25] of 4.11 µM and a TGI [25] of 22.3 µM. It also gave a GI50 [26] of 3.04 µM, a TGI [26] of 8.76 µM and a GI50 [27] of 12 µM. For the same compound, the TGI [27] was 39.4 µM, the GI50 [28] was 3.45 µM and the TGI [28] was 11.3 µM. The GI50 [30] was 1.91 µM, the TGI [30] was 3.87 µM and the GI50 [31] was 2.32 µM. The TGI [31] was 5.33 µM, the GI50 [32] was 3.62 µM and the TGI [32] was 16.9 µM. It also gave a GI50 [33] of 0.898 µM, a TGI [33] of 4.31 µM and a GI50 [34] of 10.5 µM. It also gave a TGI [34] greater than 100 µM, a GI50 [35] of 1.8 µM and a TGI [35] of 3.68 µM. It also gave a GI50 [37] of 1.96 µM, a TGI [37] of 5.97 µM and a GI50 [38] of 2.05 µM. For the same compound, the TGI [38] was 4.16 µM, the GI50 [40] was 2.22 µM and the TGI [40] was 4.25 µM. The GI50 [41] was 24.3 µM, the TGI [41] was 42.8 µM and the GI50 [42] was 1.12 µM. The TGI [42] was 4.53 µM, the GI50 [44] was 2.96 µM and the TGI [44] was 8.54 µM. For the same compound, the GI50 [45] was 15.7 µM, the TGI [45] was 91.7 µM and the GI50 [46] was 2.41 µM. For the same compound, the TGI [46] was 5.64 µM, the GI50 [47] was 30.5 µM and the TGI [47] was 54.9 µM. For the same compound, the GI50 [49] was 11.7 µM, the TGI [49] was greater than 100 µM and the GI50 [50] was 11.8 µM. It also gave a TGI [50] of 27.6 µM, a GI50 [51] of 3.27 µM and a TGI [51] of 11.3 µM. For the same compound, the GI50 [52] was 2.61 µM, the TGI [52] was 7.53 µM and the GI50 [54] was 13.4 µM. For the same compound, the TGI [54] was 29.7 µM, the GI50 [55] was 3.13 µM and the TGI [55] was 10.3 µM. It also gave a GI50 [56] of 18.1 µM, a TGI [56] of 51.9 µM and a GI50 [57] of 3.27 µM. The TGI [57] was 12.4 µM.
